US5314886A, “N-substituted lactams useful as cholecystokinin antagonists” (priority 1992, dated 1994)

How the values were obtained:
[1] = target: T1, CCK-B (Cavia porcellus, UniProt H0VZC5); assay: Displacement of 125I-CCK-OP binding to guinea pig brain homogenates (CCK-B binding); conditions: guinea pig brain membranes; for inhibition at 10 µM: read-out: CCK-B binding GP brain membranes: percent displacement of 125I-CCK-OP
T1 construct: Rat pancreas or guinea pig brain was homogenized; from tissue; host or cells: guinea pig brain homogenate (membrane pellet)
T1 sequence (H0VZC5 1-426): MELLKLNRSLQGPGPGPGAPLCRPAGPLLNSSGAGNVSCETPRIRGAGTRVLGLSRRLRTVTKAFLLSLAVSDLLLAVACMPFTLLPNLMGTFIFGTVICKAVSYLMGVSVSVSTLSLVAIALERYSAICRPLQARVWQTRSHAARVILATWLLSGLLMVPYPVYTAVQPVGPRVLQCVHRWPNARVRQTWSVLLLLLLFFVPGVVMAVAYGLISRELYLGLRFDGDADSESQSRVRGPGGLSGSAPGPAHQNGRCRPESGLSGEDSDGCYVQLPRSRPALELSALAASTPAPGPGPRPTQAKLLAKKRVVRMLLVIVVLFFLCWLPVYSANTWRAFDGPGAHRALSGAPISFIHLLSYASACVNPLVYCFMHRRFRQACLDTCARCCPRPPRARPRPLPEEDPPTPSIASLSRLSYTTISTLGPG
Experimental: Percent displacement of ^125 I-CCK-OP binding to rat pancreatic membrane and guinea pig brain homogenates by compounds of the instant invention at different concentrations was used to quantify CCK-A and CCK-B receptor binding, respectively.
Binding of 125-CCK-OP to rat pancreas (CCK-A) and guinea pig brain (CCK-B) homogenates.
Rat pancreas or guinea pig brain was homogenized in 50 and 20 volumes, respectively, of 50 mM Tris-HCl buffer (pH 7.8 at 25° C.) with a Brinkmann polytron homogenizer. The homogenates were centrifuged twice at 50,000 x g for 20 min with an intermediate rehomogenization in fresh buffer. The final pellets were resuspended in 20 volumes (brain) or 40 volumes (pancreas) of incubation buffer [50 mM Tris-HCl, 5 mM MgCl2, 0.2% BSA, 5 mM dithiothreitol, 0.14 mg/ml bacitracin, pH 7.9 at 25° C.]. One milliliter of the final homogenate from brain or pancreas was diluted to 50 mL with incubation buffer to use in the binding assay.
Binding experiments were performed in a final volume of 1 mL in 13×100 mm borosilicate disposable culture tubes. To duplicate tubes were added 890 μL of freshly resuspended pancreas or brain homogenate; 73,000 dpm of […] (final concentration, 12 pM) and 10 μL of DMSO containing displacing agents (compounds or reference compounds, at the desired final concentrations). Nonspecific (nonsaturable) binding was determined in the presence of 1 μM unlabeled CCK-OP. After incubation for 30 min at 37° C. the binding was stopped by rapid filtration under a reduced pressure through glass fiber FPD-105 Whatman GF/B filters on Harvester and washed twice with 5 mL of ice-cold Tris buffer (50 mM Tris-HCl, pH 7.8). The radioactivity on the filters was counted in a gama counter. […] Specific binding was defined as the excess binding over that in blanks containing 1 μM unlabeled CCK-OP.
Determination of IC50 for displacing agents

[2] = target: T2, CCK-A (Rattus norvegicus, UniProt P30551); assay: Displacement of 125I-CCK-OP binding to rat pancreatic membranes (CCK-A binding); conditions: 125I-CCK-OP
T2 sequence (P30551 1-444): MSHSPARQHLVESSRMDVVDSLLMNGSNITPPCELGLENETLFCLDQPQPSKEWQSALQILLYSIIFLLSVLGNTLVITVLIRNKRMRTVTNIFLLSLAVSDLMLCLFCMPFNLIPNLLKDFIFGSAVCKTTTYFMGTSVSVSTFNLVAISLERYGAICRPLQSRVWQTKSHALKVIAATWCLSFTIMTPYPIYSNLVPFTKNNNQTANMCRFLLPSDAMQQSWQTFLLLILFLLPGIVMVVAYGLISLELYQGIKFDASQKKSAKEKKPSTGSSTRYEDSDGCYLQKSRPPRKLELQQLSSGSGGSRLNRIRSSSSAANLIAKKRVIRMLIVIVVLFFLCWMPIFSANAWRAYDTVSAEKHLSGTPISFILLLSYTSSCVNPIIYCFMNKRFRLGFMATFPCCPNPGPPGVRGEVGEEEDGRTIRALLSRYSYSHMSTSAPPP

[3] = system: CCK receptors; assay: Rat gastric emptying: reversal of CCK-delayed gastric emptying; type: in vivo; conditions: CCK 100 μg/Kg i.p.; for CCK-delayed gastric emptying: ED50: IP
Experimental: Rat Gastric Emptying Protocol
A test meal for measuring gastric emptying in rats was prepared. Ten grams of methylcellulose (2% solution=15 centipoises; Aldrich Chemical Company, Milwaukee, Wisc. was added to 200ml of cold water and mixed at 20,000 rpm in a Waring blender to insure dispersion and hydration of the methylcellulose. In addition, two beef bouillon cubes (Wyler's, Columbus, Ohio) dissolved in 100 ml of warm water was added to the mixture, followed by 16 g of casein (Hammersten, Schwartz/Mann, Orangeburg, N.Y.), 8 g of powdered confectioners sugar and 8 g of cornstarch. The ingredients were mixed for two minutes at 20,000 rpm and the resultant test meal was refrigerated for 48 hours to allow trapped air to escape. Male Charles River Rats, Crl: COBS, CD (SD) BR Strain, 180-200 g body weight, were used in groups of six animals. The animals were food deprived for 24 hours prior to the experiment with access to water ad libitum. The compounds to be evaluated were prepared in a 0.5% aqueous methylcellulose solution. If insoluble, the mixture was homogenized for two minutes at 5500 rpm using a Try-R-Stir-R. The compounds were given intraperitoneally or intragastrically at a volume of 5 ml/kg, 60 minutes or 90 min, respectively, before the test meal. Control animals received only the vehicle. Cholecystokinin (100 μg/Kg, i.p.) was given 30 minutes before the test meal to delay gastric emptying by an effect elicited through CCK receptors. Sixty minutes after the test meal (2.0 ml/rat, i.g.), the rats were sacrificed by CO2 asphyxiation. The stomachs were removed intact and weighed. The stomachs were kept opened, gently rinsed with tap water, blotted dry with paper toweling, and the empty stomach weighed. The difference between the weight of the full and empty stomach is indicative of the amount of meal remaining in the stomach. The amount of meal remaining in the stomach was subtracted from the weight of 3 ml of the test meal to determine the amount of food emptied from the stomach during the test. Weight of the test meal was determined by weighing three samples (3 ml) at the beginning and three samples at the end of each experiment and calculating the mean. The mean and standard error of the amount of meal emptied were calculated for at least 5 doses of compound, and expressed as percent change from control.

Compound | inhibition at 10 µM [1] [%] | IC50 [2] [nM] | CCK-delayed gastric emptying: ED50 [3] [mpk] | IC50 ([1]; 125I-CCK-OP, read-out: CCK-B binding GP brain membranes: IC50) [nM] | CCK-delayed gastric emptying: % Reversal @ Dose ([3]; 1.0 mpk IP) [%] | CCK-delayed gastric emptying: % Reversal @ Dose ([3]; 3 mpk IP) [%]
O=C(N[C@@H]1C(=O)N(c2ccccc2)C[C@@H]1C(=O)O)c1ccc2ccccc2c1 (relative stereo) [41 cis] | 48 | 15 | 0.41 | – | – | –
O=C(N[C@H]1C(=O)N(c2ccccc2)C[C@H]1C(=O)O)c1cc2ccccc2[nH]1 (relative stereo) [Example 29, cis-4-[(1H-indol-2-ylcarbonyl)amino]-5-oxo-1-phenyl-3-pyrrolidinecarboxylicacid] | – | 17 | < 0.1 | 5100 | 86.3 | –
O=C(N[C@H]1C(=O)N(c2ccccc2)C[C@H]1C(=O)O)c1ccc(Cl)c(Cl)c1 (relative stereo) [Example 35 (cis), cis-4-[[(3,4-dichlorophenyl)carbonyl]amino]-5-oxo-1-phenyl-3-pyrrolidinecarboxylic acid] | 35 | 58 | – | – | – | 57.9
O=C(N[C@H]1C(=O)N(c2ccccc2F)C[C@H]1C(=O)O)c1ccc2ccccc2c1 (relative stereo) [Example 44, cis-1-(2-Fluorophenyl)-4-[(2-naphthalenylcarbonyl]amino]-5-oxo-3-pyrrolidinecarboxylic acid] | 41 | – | 1.7 | – | – | 86
